In publication PMC8067754, “Active Transport of Hepatotoxic Pyrrolizidine Alkaloids in HepaRG Cells” (International Journal of Molecular Sciences, 2021):
Values joined by “and” are separate entries in the source; they are usually repeats but may differ in a detail not shown here. Equal values may be shown once.

System: HepaRG cells
Test: Time-dependent PA depletion and PANO formation in cell culture medium of HepaRG cells at 37 °C and 4 °C (LC-MS/MS)
Settings: for PA content in cell culture medium, Mean [%]: 700 nM PA; for PA content in cell culture medium, Mean [%] / PANO content in cell culture medium, Mean [%]: percent of initial PA concentration; for reduction of PA content in the supernatant: after 24 h, 700 nM
Experimental: In order to measure time-dependent depletion of PA and PANO content in cell culture medium, cells were seeded at a density of 0.2 × 10^6 cells per well in a 6-well plate and cultivated as described in Section 4.2. After four weeks of cultivation, cells were adapted to serum-free medium and medium substituted with insulin, transferrin, selenium (ITS) serum extender (Capricorn Scientific, Ebsdorfergrund, Germany) 48 h prior to PA incubation for optimal LC-MS/MS measurements. […] Samples were taken after 2 h, 4 h, 8 h and 24 h.
Briefly, chromatographic separation of PA/PANO analytes was achieved on a 50 × 2.1 mm Kinetex ™ 2.6 μm CoreShell EVO C18 100 Å column protected by a SecurityGuard ™ ULTRA EVO C 18 2.1 mm guard column (both Phenomenex, Aschaffenburg, Germany) at a flow rate of 0.4 mL/min on a Shimadzu high performance liquid chromatography (HPLC) apparatus (LC-20AB, SIL-20AC HT, CTO-20AC, CBM-20A, Duisburg, Germany) coupled to an API4000 triple quadrupole MS (Sciex, Darmstadt, Germany). The following MS parameters were used for measurements in positive electrospray ionisation (ESI+) mode: ionisation voltage 2500 V, nebuliser gas 50 psi, heating gas 50 psi, curtain gas 30 psi, temperature 600 °C, collision gas level 7. The substance specific parameters are summarized in Kaltner et al. 2019 [79].

## intermedine
HepaRG, 4 °C (cold), 0h
  PA content in cell culture medium, Mean [%]: 107.988%
HepaRG, 4 °C (cold), 2h
  PA content in cell culture medium, Mean [%]: 103.883%
HepaRG, 4 °C (cold), 4h
  PA content in cell culture medium, Mean [%]: 102.163%
HepaRG, 4 °C (cold), 8h
  PA content in cell culture medium, Mean [%]: 103.746%
HepaRG, 4 °C (cold), 24h
  PA content in cell culture medium, Mean [%]: 100.748%
HepaRG, 37 °C (warm), 0h
  PA content in cell culture medium, Mean [%]: 108.544%
HepaRG, 37 °C (warm), 2h
  PA content in cell culture medium, Mean [%]: 103.044%
HepaRG, 37 °C (warm), 4h
  PA content in cell culture medium, Mean [%]: 97.3218%
HepaRG, 37 °C (warm), 8h
  PA content in cell culture medium, Mean [%]: 97.4673%
HepaRG, 37 °C (warm), 24h
  PA content in cell culture medium, Mean [%]: 100.568%
HepaRG, 700 nM parent PA, 4 °C (cold), 0h
  PANO content in cell culture medium, Mean [%]: 0%
HepaRG, 700 nM parent PA, 4 °C (cold), 2h
  PANO content in cell culture medium, Mean [%]: 0.06406%
HepaRG, 700 nM parent PA, 4 °C (cold), 4h
  PANO content in cell culture medium, Mean [%]: 0.04788%
HepaRG, 700 nM parent PA, 4 °C (cold), 8h
  PANO content in cell culture medium, Mean [%]: 0.07456%
HepaRG, 700 nM parent PA, 4 °C (cold), 24h
  PANO content in cell culture medium, Mean [%]: 0.022%
HepaRG, 700 nM parent PA, 37 °C (warm), 0h
  PANO content in cell culture medium, Mean [%]: 0%
HepaRG, 700 nM parent PA, 37 °C (warm), 2h
  PANO content in cell culture medium, Mean [%]: 0.04194%
HepaRG, 700 nM parent PA, 37 °C (warm), 4h
  PANO content in cell culture medium, Mean [%]: 0.01862%
HepaRG, 700 nM parent PA, 37 °C (warm), 8h
  PANO content in cell culture medium, Mean [%]: 0.0065%
HepaRG, 700 nM parent PA, 37 °C (warm), 24h
  PANO content in cell culture medium, Mean [%]: 0.0275%
HepaRG, 37 °C
  reduction of PA content in the supernatant: only little reduction
cold, 0h
  PA in medium, Mean [%]: 100%
  PA in medium, single replicates (repl.): 100%
  PANO in medium, Mean [%]: 0%
  PANO in medium, single replicates (repl.): 0%
cold, 2h
  PA in medium, Mean [%]: 96.2366%
  PA in medium, single replicates (repl.): 96.0144% and 91.6565% and 102.06% and 95.215%
  PANO in medium, Mean [%]: 0.05112%
  PANO in medium, single replicates (repl.): 0.03% and 0.05295% and 0.03688% and 0.08463%
cold, 4h
  PA in medium, Mean [%]: 94.7318%
  PA in medium, single replicates (repl.): 93.7752% and 93.3154% and 101.161% and 90.6753%
  PANO in medium, Mean [%]: 0.03748%
  PANO in medium, single replicates (repl.): 0.02966% and 0.02637% and 0% and 0.09388%
cold, 8h
  PA in medium, Mean [%]: 96.1713%
  PA in medium, single replicates (repl.): 95.8013% and 89.4137% and 105.78% and 93.6906%
  PANO in medium, Mean [%]: 0.05989%
  PANO in medium, single replicates (repl.): 0.03944% and 0.1014% and 0% and 0.09868%
cold, 24h
  PA in medium, Mean [%]: 93.3405%
  PA in medium, single replicates (repl.): 92.0698% and 90.9944% and 99.8071% and 90.4909%
  PANO in medium, Mean [%]: 0.01524%
  PANO in medium, single replicates (repl.): 0.001348% and 0% (2×) and 0.05962%
warm, 0h
  PA in medium, Mean [%]: 100%
  PA in medium, single replicates (repl.): 100%
  PANO in medium, Mean [%]: 0%
  PANO in medium, single replicates (repl.): 0%
warm, 2h
  PA in medium, Mean [%]: 94.9033%
  PA in medium, single replicates (repl.): 93.3617% and 94.7726% and 98.2992% and 93.1796%
  PANO in medium, Mean [%]: 0.03999%
  PANO in medium, single replicates (repl.): 0.003057% and 0.04704% and 0.1099% and 0%
warm, 4h
  PA in medium, Mean [%]: 89.9787%
  PA in medium, single replicates (repl.): 93.5042% and 95.5972% and 80.8797% and 89.9336%
  PANO in medium, Mean [%]: 0.01797%
  PANO in medium, single replicates (repl.): 0% (2×) and 0.07092% and 0.000941%
warm, 8h
  PA in medium, Mean [%]: 90.1345%
  PA in medium, single replicates (repl.): 94.7528% and 91.6017% and 83.3876% and 90.7959%
  PANO in medium, Mean [%]: 0.006117%
  PANO in medium, single replicates (repl.): 0% (3×) and 0.02447%
warm, 24h
  PA in medium, Mean [%]: 92.1206%
  PA in medium, single replicates (repl.): 92.1111% and 85.5289% and 89.7263% and 101.116%
  PANO in medium, Mean [%]: 0.02621%
  PANO in medium, single replicates (repl.): 0% (2×) and 0.05428% and 0.05058%

## C/C=C1/C[C@@H](C)[C@@](C)(O)C(=O)OCC2=CC[N+]3([O-])CC[C@@H](OC1=O)[C@@H]23 (stereo partly drawn) [senecionine N-oxide]
HepaRG, 4 °C, 700 nM senecionine, up to 24 h, Figure 2d
  PANO formed in cold-incubated cells, of the applied mother compound: < 1%
HepaRG, 37 °C, 700 nM parent PA, up to 24 h
  PANO formation in cell culture medium: increased with time

## C/C=C(/C)C(=O)O[C@H]1CCN2CC=C(COC(=O)[C@@](O)([C@@H](C)O)C(C)(C)O)[C@H]12 [Heliosupine, heliosupine]
HepaRG, 4 °C (cold), 2h
  PA content in cell culture medium, Mean [%]: 91.4819%
HepaRG, 4 °C (cold), 4h
  PA content in cell culture medium, Mean [%]: 87.9748%
HepaRG, 4 °C (cold), 8h
  PA content in cell culture medium, Mean [%]: 89.7595%
HepaRG, 4 °C (cold), 24h
  PA content in cell culture medium, Mean [%]: 78.8823%
HepaRG, 37 °C (warm), 0h
  PA content in cell culture medium, Mean [%]: 95.6507%
HepaRG, 37 °C (warm), 2h
  PA content in cell culture medium, Mean [%]: 59.8398%
HepaRG, 37 °C (warm), 4h
  PA content in cell culture medium, Mean [%]: 37.2399%
HepaRG, 37 °C (warm), 8h
  PA content in cell culture medium, Mean [%]: 12.933%
HepaRG, 37 °C (warm), 24h
  PA content in cell culture medium, Mean [%]: 0.2071%
HepaRG, 37 °C
  reduction of PA content in the supernatant: highest decline
HepaRG, Figure 2a, toxicity grading with ref 41
  uptake and toxicity (grading): strong
cold, 0h
  PA in medium, Mean [%]: 100%
  PA in medium, single replicates (repl.): 100%
cold, 2h
  PA in medium, single replicates (repl.): 95.0989% and 96.7114%
cold, 4h
  PA in medium, Mean [%]: 98.142%
  PA in medium, single replicates (repl.): 94.7313% and 89.2662% and 110.429%
cold, 8h
  PA in medium, Mean [%]: 98.6729%
  PA in medium, single replicates (repl.): 94.1093%
cold, 24h
  PA in medium, Mean [%]: 85.6503%
  PA in medium, single replicates (repl.): 84.4985% and 86.6382%
warm, 0h
  PA in medium, Mean [%]: 100%
  PA in medium, single replicates (repl.): 100%
warm, 2h
  PA in medium, Mean [%]: 66.3099%
  PA in medium, single replicates (repl.): 44.4302% and 65.8608% and 88.6387%
warm, 4h
  PA in medium, Mean [%]: 41.9165%
  PA in medium, single replicates (repl.): 27.0977% and 40.0579% and 58.5941%
warm, 8h
  PA in medium, Mean [%]: 15.145%
  PA in medium, single replicates (repl.): 8.52% and 13.2978% and 23.6169%
warm, 24h
  PA in medium, Mean [%]: 0.2418%
  PA in medium, single replicates (repl.): 0.3741% and 0.0766% and 0.2748%
